Test system: IFNα-Induced STAT Phosphorylation in Human Whole Blood
Experiment: IFNα-Induced STAT Phosphorylation in Human Whole Blood
Type: cell-based
Conditions: 1 h incubation with compound, 1000 U/mL recombinant human IFNα A/D for 15 min, pSTAT5 (pY694) median fluorescence intensity in CD3 positive population, read-out: hWB IC50
Description: IFNα-Induced STAT Phosphorylation in Human Whole Blood
After an hour long incubation with compound, human whole blood (drawn with either EDTA or ACD-A as anti-coagulant) was stimulated with 1000 U/mL recombinant human IFNα A/D (R&D Systems 11200-2) for 15 min. The stimulation was stopped by adding Fix/Lyse buffer (BD 558049). Cells were stained with a CD3 FITC antibody (BD 555916), washed, and permeabilized on ice using Perm III buffer (BD 558050). […] The amount of pSTAT5 expression was quantitated by median fluorescence intensity after gating on the CD3 positive population.
IFNα-Induced STAT Phosphorylation in Human Whole Blood Inhibition Data

[2H]C([2H])([2H])NC(=O)c1nnc(Nc2cc(C(C)(C)O)n(C)n2)cc1Nc1cccc(-c2ncccn2)c1OC [Example 81, 6-((5-(2-hydroxypropan-2-yl)-1-methyl-1H-pyrazol-3-yl)amino)-4-((2-methoxy-3-(pyrimidin-2-yl)phenyl)amino)-N-(methyl-d3)pyridazine-3-carboxamide]
IC50: 0.014 µM

[2H]C([2H])([2H])NC(=O)c1nnc(NC(=O)C2CC2)cc1Nc1cccc(-c2ncc3ncn(C)c3n2)c1OC [Example 1, 6-(Cyclopropanecarboxamido)-4-((2-methoxy-3-(9-methyl-9H-purin-2-yl)phenyl)amino)-N-(methyl-d3)pyridazine-3-carboxamide]
IC50: 0.254 µM

[2H]C([2H])([2H])NC(=O)c1nnc(NC(=O)C2CC2)cc1Nc1cc(F)cc(-c2ncc(C(C)(O)CF)cn2)c1OC (stereo not shown) [Example 32, 6-(cyclopropanecarboxamido)-4-((5-fluoro-3-(5-(1-fluoro-2-hydroxypropan-2-yl)pyrimidin-2-yl)-2-methoxyphenyl)amino)-N-(methyl-d3)pyridazine-3-carboxamide]
IC50: 0.071 µM

[2H]C([2H])([2H])NC(=O)c1nnc(NC(=O)C2CC2)cc1Nc1cccc(-c2cnc(N3CCN(C)CC3)cn2)c1OC [Example 58, 6-(cyclopropanecarboxamido)-4-((2-methoxy-3-(5-(4-methylpiperazin-1-yl)pyrazin-2-yl)phenyl)amino)-N-(methyl-d3)pyridazine-3-carboxamide]
IC50: 0.267 µM

[2H]C([2H])([2H])NC(=O)c1nnc(Nc2ccc(OC)nn2)cc1Nc1cccc(-c2ncccn2)c1OC [Example 96, 4-((2-methoxy-3-(pyrimidin-2-yl)phenyl)amino)-6-((6-methoxypyridazin-3-yl)amino)-N-(methyl-d3)pyridazine-3-carboxamide]
IC50: 0.096 µM

[2H]C([2H])([2H])NC(=O)c1nnc(NC(=O)C2CC2)cc1Nc1cccc(-c2cnc(C3(O)COC3)cn2)c1OC [Example 33, 6-(cyclopropanecarboxamido)-4-((3-(5-(3-hydroxyoxetan-3-yl)pyrazin-2-yl)-2-methoxyphenyl)amino)-N-(methyl-d3)pyridazine-3-carboxamide]
IC50: 0.043 µM

[2H]C([2H])([2H])NC(=O)c1nnc(NC(=O)C2CC2)cc1Nc1cccc(-c2ncc(N3CCOC3=O)cn2)c1OC [Example 113]
IC50: 0.036 µM

[2H]C([2H])([2H])NC(=O)c1nnc(Nc2cc(=O)n(C)cn2)cc1Nc1cccc(-c2ncc(F)cn2)c1OC [Example 106, 4-((3-(5-fluoropyrimidin-2-yl)-2-methoxyphenyl)amino)-N-(methyl-d3)-6-((1-methyl-6-oxo-1,6-dihydropyrimidin-4-yl)amino)pyridazine-3-carboxamide]
IC50: 0.151 µM

[2H]C([2H])([2H])NC(=O)c1cnc(Nc2ccc(OC)nn2)cc1Nc1cccc(-c2ncc(F)cn2)c1OC [Example 74, 4-((3-(5-fluoropyrimidin-2-yl)-2-methoxyphenyl)amino)-6-((6-methoxypyridazin-3-yl)amino)-N-(methyl-d3)nicotinamide]
IC50: 0.087 µM

[2H]C([2H])([2H])NC(=O)c1nnc(NC(=O)C2CC2)cc1Nc1cccc(-c2ncc(N3CCCC3=O)cn2)c1OC [Example 112]
IC50: 0.027 µM

[2H]C([2H])([2H])NC(=O)c1nnc(NC(=O)C2CC2)cc1Nc1cccc(-c2cnc(N3CCOCC3)cn2)c1OC [Example 57, 6-(Cyclopropanecarboxamido)-4-((2-methoxy-3-(5-morpholinopyrazin-2-yl)phenyl)amino)-N-(methyl-d3)pyridazine-3-carboxamide]
IC50: 0.117 µM

[2H]C([2H])([2H])NC(=O)c1nnc(Nc2cc(C#N)n(C)n2)cc1Nc1cccc(-c2ncccn2)c1OC [Example 80, 6-((5-cyano-1-methyl-1H-pyrazol-3-yl)amino)-4-((2-methoxy-3-(pyrimidin-2-yl)phenyl)amino)-N-(methyl-d3)pyridazine-3-carboxamide]
IC50: 0.08 µM

[2H]C([2H])([2H])NC(=O)c1nnc(NC(=O)C2CC2)cc1Nc1cccc(-c2ncc(C(=O)N3CCC3)cn2)c1OC [Example 48, 4-((3-(5-(azetidine-1-carbonyl)pyrimidin-2-yl)-2-methoxyphenyl)amino)-6-(cyclopropanecarboxamido)-N-(methyl-d3)pyridazine-3-carboxamide]
IC50: 0.118 µM

[2H]C([2H])([2H])NC(=O)c1nnc(NC(=O)C2CC2)cc1Nc1cccc(-c2cnc(N(C)C(C)=O)cn2)c1OC [Example 56, 6-(Cyclopropanecarboxamido)-4-((2-methoxy-3-(5-(N-methylacetamido)pyrazin-2-yl)phenyl)amino)-N-(methyl-d3)pyridazine-3-carboxamide]
IC50: 0.117 µM

[2H]C([2H])([2H])NC(=O)c1cnc(Nc2cnc(C#N)cn2)cc1Nc1cccc(-c2ncc(F)cn2)c1OC [Example 71, 6-((5-cyanopyrazin-2-yl)amino)-4-((3-(5-fluoropyrimidin-2-yl)-2-methoxyphenyl)amino)-N-(methyl-d3)nicotinamide]
IC50: 0.278 µM

[2H]C([2H])([2H])NC(=O)c1nnc(Nc2ccc(C)nn2)cc1Nc1cccc(-c2ncc(F)cn2)c1OC [Example 94, 4-((3-(5-fluoropyrimidin-2-yl)-2-methoxyphenyl)amino)-N-(methyl-d3)-6-((6-methylpyridazin-3-yl)amino)pyridazine-3-carboxamide]
IC50: 0.038 µM

[2H]C([2H])([2H])NC(=O)c1nnc(Nc2ccc(C#N)nn2)cc1Nc1cccc(-c2ncc(F)cn2)c1OC [Example 95, 6-((6-cyanopyridazin-3-yl)amino)-4-((3-(5-fluoropyrimidin-2-yl)-2-methoxyphenyl)amino)-N-(methyl-d3)pyridazine-3-carboxamide]
IC50: 0.182 µM

[2H]C([2H])([2H])NC(=O)c1nnc(NC(=O)C2CC2)cc1Nc1cccc(-c2ccc(=O)n(C)n2)c1OC [Example 9, 6-(cyclopropanecarboxamido)-4-((2-methoxy-3-(1-methyl-6-oxo-1,6-dihydropyridazin-3-yl)phenyl)amino)-N-(methyl-d3)pyridazine-3-carboxamide]
IC50: 0.214 µM

[2H]C([2H])([2H])NC(=O)c1nnc(Nc2cc(C(C)(C)O)ccn2)cc1Nc1cc(F)cc(-c2ncccn2)c1OC [Example 105, 4-((5-fluoro-2-methoxy-3-(pyrimidin-2-yl)phenyl)amino)-6-((4-(2-hydroxypropan-2-yl)pyridin-2-yl)amino)-N-(methyl-d3)pyridazine-3-carboxamide]
IC50: 0.172 µM

[2H]C([2H])([2H])NC(=O)c1nnc(Nc2ccc(C3CC3)nn2)cc1Nc1cccc(-c2ncc(F)cn2)c1OC [Example 99, 6-((6-cyclopropylpyridazin-3-yl)amino)-4-((3-(5-fluoropyrimidin-2-yl)-2-methoxyphenyl)amino)-N-(methyl-d3)pyridazine-3-carboxamide]
IC50: 0.071 µM

[2H]C([2H])([2H])NC(=O)c1cnc(Nc2cc(C)n(C)n2)cc1Nc1cccc(-c2ncc(F)cn2)c1OC [Example 63, 6-((1,5-dimethyl-1H-pyrazol-3-yl)amino)-4-((3-(5-fluoropyrimidin-2-yl)-2-methoxyphenyl)amino)-N-(methyl-d3)nicotinamide]
IC50: 0.049 µM

[2H]C([2H])([2H])NC(=O)c1nnc(Nc2cn(CC)nn2)cc1Nc1cccc(-c2ncc(F)cn2)c1OC [Example 89, 6-((1-ethyl-1H-1,2,3-triazol-4-yl)amino)-4-((3-(5-fluoropyrimidin-2-yl)-2-methoxyphenyl)amino)-N-(methyl-d3)pyridazine-3-carboxamide]
IC50: 0.25 µM

[2H]C([2H])([2H])NC(=O)c1nnc(NC(=O)C2CC2)cc1Nc1cccc(-c2ccc(C(C)(O)CC)nn2)c1OC (stereo not shown) [Example 23, 6-(cyclopropanecarboxamido)-4-((3-(6-(2-hydroxybutan-2-yl)pyridazin-3-yl)-2-methoxyphenyl)amino)-N-(methyl-d3)pyridazine-3-carboxamide]
IC50: 0.032 µM

[2H]C([2H])([2H])NC(=O)c1cnc(Nc2cc(C#N)n(C)n2)cc1Nc1cccc(-c2ncc(F)cn2)c1OC [Example 62, 6-((5-cyano-1-methyl-1H-pyrazol-3-yl)amino)-4-((3-(5-fluoropyrimidin-2-yl)-2-methoxyphenyl)amino)-N-(methyl-d3)nicotinamide]
IC50: 0.109 µM

[2H]C([2H])([2H])NC(=O)c1nnc(NC(=O)C2CC2)cc1Nc1cccc(-c2ncc(N3CCOCC3)cn2)c1OC [Example 13, 6-(cyclopropanecarboxamido)-4-((2-methoxy-3-(5-morpholinopyrimidin-2-yl)phenyl)amino)-N-(methyl-d3)pyridazine-3-carboxamide]
IC50: 0.095 µM

[2H]C([2H])([2H])NC(=O)c1nnc(Nc2cc3n(n2)CCN(C)C3=O)cc1Nc1cccc(-c2ncccn2)c1OC [Example 108, 4-((2-Methoxy-3-(pyrimidin-2-yl)phenyl)amino)-N-(methyl-d3)-6-((5-methyl-4-oxo-4,5,6,7-tetrahydropyrazolo[1,5-a]pyrazin-2-yl)amino)pyridazine-3-carboxamide]
IC50: 0.137 µM

[2H]C([2H])([2H])NC(=O)c1cnc(Nc2ccn(CC)n2)cc1Nc1cccc(-c2ncc(F)cn2)c1OC [Example 67, 6-((1-ethyl-1H-pyrazol-3-yl)amino)-4-((3-(5-fluoropyrimidin-2-yl)-2-methoxyphenyl)amino)-N-(methyl-d3)nicotinamide]
IC50: 0.087 µM

[2H]C([2H])([2H])NC(=O)c1cnc(Nc2ccn(C)n2)cc1Nc1cccc(-c2ncc(F)cn2)c1OC [Example 65, 4-((3-(5-fluoropyrimidin-2-yl)-2-methoxyphenyl)amino)-N-(methyl-d3)-6-((1-methyl-1H-pyrazol-3-yl)amino)nicotinamide]
IC50: 0.086 µM
